Measured values as given in patent US8324197B2, “Transplatinum complexes with N2O2 donor sets as cytotoxic and antitumor agents” (Virginia Commonwealth University, priority 2005, dated 2012).

What was measured:
[1] = Reaction with N-AcMet followed by 195Pt NMR
Excerpt: The slow hydrolysis is a unique feature of two carboxylate ligands in a trans-axial position and can be modulated by choice of carboxylate. To examine how this might affect possible reactions with biomolecules, a preliminary study of the reactions of 4e with guanosine-5′-monophosphate (5′-GMP, model for DNA) and N-acetyl-L-methionine (N-AcMet, model for sulfur ligand metabolism) was made by ^195Pt NMR Spectroscopy. In the case of 5′-GMP the peak of the starting material at −1450 ppm is only gradually replaced by a new peak at −2365 ppm. This shift is consistent with the formation of a species that has a PtN4 coordination sphere,^26 due to replacement of both formate groups. Approximately 50% reaction (as judged by the intensity of the ^1H H8 signal and ^195Pt NMR signals), occurred within 24h. For N-AcMet the starting material was approximately 50% of total intensity even after 8 h. […] The chemical shift is consistent with a PtN2O2 coordination sphere—this could arise from displacement of formate by H2O/OH or an O-bound methionine.^27 This species preceded the formation of the N-AcMet product at −3320 ppm consistent with a PtN2S2 coordination sphere, trans-[Pt(NH3)(4-pic)(NAcMet)2],^23,28 which was 40% of the total platinum species after 10 h. […] Whether the possible formation of an O-bound methionine species is a reflection of the low pKal and the electronic effects of a π-acceptor ligand is worthy of further investigation.

[2] = Solubility of TPA carboxylates, Example 6; assay type: physicochemical; settings: aqueous; table title ambient temperature, text 37° C.
[3] = system: human ovarian cancer cell line A2780; test: MTT growth inhibition assay; assay type: cell-based; settings: 72 h
Excerpt: • (1) Van Beusichem, M.; Farrell, N. Inorg. Chem. 1992, 31, 634-639. • (2) Farrell, N.; Kelland, L. R.; Roberts, J. D.; Van Beusichem, M. Cancer Res. 1992, 52, 5065-5072. • (3) Farrell, N. Cancer Invest. 1993, 11, 578-589. • (4) Coluccia, M.; Nassi, A.; Loseto, F.; Boccarelli, A.; Mariggio, M. A.; Giordano, D.; Intini, F. P.; Caputo, P.; Natile, G. J. Med. Chem. 1993, 36, 510-512. • (5) Khazanov, E.; Barenholz, Y.; Gibson, D.; Najajreh, Y. J. Med. Chem. 2002, 45, 5196-5204. • (6) Najajreh, Y.; Perez, J. M.; Navarro-Ranninger, C.; Gibson, D. J. Med. Chem. 2002, 45, 5189-5195. • (7) Montero, E. I.; Diaz, S.; Gonzalez-Vadillo, A. M.; Perez, J. M.; Alonso, C.; Navarro-Ranninger, C. J. Med. Chem. 1999, 42, 4264-4268. • (8) Natile, G.; Coluccia, M. Coord. Chem. Rev. 2001, 216-217, 383-410. • (9) Fojo, T.; Farrell, N.; Ortuzar, W.; Tanimura, H.; Weinstein, J.; Myers Timothy, G. I Crit. Rev. Oncol./ Hematol. 2005, 53, 25-34. • (10) Murphy, R. F.; Farrell, N.; Aguila, A.; Okada, M.; Balis, F. M.; Fojo, T. Proc. Am. Assoc. […] IC50 values were determined graphically

[4] = Initial hydrolysis of TPA carboxylates monitored by HPLC at 37° C.; assay type: physicochemical; settings: H2O, I=0.02 M
Procedure: The slowest initial hydrolysis rate was found for complex 2c t-[Pt(OAc)2(NH3)(2-pic)], with just 4% hydrolysis occurring after 9 h. The hydrolysis of the formate complex 4f was the fastest, with 24% hydrolysis occurring after 9 h. The hydrolysis rates of the acetate complexes followed the pattern 2c<4c<3c. […] Thus, hydrolysis of the acetate complexes is slowed by an approximate order of magnitude compared to their direct chloro analogs but there is little difference in the present case between 3- and 4-picoline. Steric hindrance therefore predominates over the electronic effects of the methyl group. In the case of the chloride complexes, the 3-pic directs less electron density to the platinum rendering it less nucleophilic relative to the 2-pic and 4-pic. 14 We observe the same trend in the acetate complexes, but the effect is lessened due to the carboxylate group being a weak ligand, with a low trans influence and trans effect.^11

[5] = system: guanosine-5′-monophosphate (5′-GMP, model for DNA); test: Reaction with 5′-GMP followed by 195Pt NMR; settings: within 24 h
Excerpt: The slow hydrolysis is a unique feature of two carboxylate ligands in a trans-axial position and can be modulated by choice of carboxylate. To examine how this might affect possible reactions with biomolecules, a preliminary study of the reactions of 4e with guanosine-5′-monophosphate (5′-GMP, model for DNA) and N-acetyl-L-methionine (N-AcMet, model for sulfur ligand metabolism) was made by ^195Pt NMR Spectroscopy. In the case of 5′-GMP the peak of the starting material at −1450 ppm is only gradually replaced by a new peak at −2365 ppm. This shift is consistent with the formation of a species that has a PtN4 coordination sphere,^26 due to replacement of both formate groups. Approximately 50% reaction (as judged by the intensity of the ^1H H8 signal and ^195Pt NMR signals), occurred within 24h. For N-AcMet the starting material was approximately 50% of total intensity even after 8 h. […] The chemical shift is consistent with a PtN2O2 coordination sphere—this could arise from displacement of formate by H2O/OH or an O-bound methionine.^27 This species preceded the formation of the N-AcMet product at −3320 ppm consistent with a PtN2S2 coordination sphere, trans-[Pt(NH3)(4-pic)(NAcMet)2],^23,28 which was 40% of the total platinum species after 10 h. […]

A2780 = test: Growth inhibition in human ovarian cancer cell line panel, 96 h exposure; assay type: cell-based
Procedure: (§1) It is noteworthy that the acetate compounds maintain cytotoxicity with low resistance factors in all cases. The trans-[Pt(OAc)2(NH3)2] compound is also very water-soluble but the cytotoxicity of >100 μM confirms the requirement for a planar amine to enhance cytotoxicity in the trans geometry.

CH1 = test: as above; assay type: cell-based
Procedure: as §1

41M = test: as above; assay type: cell-based
Procedure: as §1

[6] = pKa of corresponding TPA diaqua complexes by potentiometric titration with NaOH; assay type: physicochemical; settings: corresponding diaqua complex trans-[Pt(OH2)2(L)(L′)], ambient temperature
Procedure: (§2) The aqueous solubility of the acetate compounds and the acid dissociation constants of the corresponding aqua species are given in Table 1. Use of acetates enhances aqueous solubility which is dependent on the exact nature of the donor ligands. The pKa values were determined by potentiometric titration of solutions of trans-[Pt(H2O)2(L)(L′)]^2+ (formed by the dissolution of the isolated trans-[Pt(NO3)2(L)(L′)]) with NaOH. […] (X=2,3,4-Me).^30

[7] = Hydrolysis (first aquation step) followed by HPLC, Example 5; assay type: physicochemical; settings: nanopure water
Procedure: For hydrolysis studies, […] complex was dissolved in 1 mL of nanopure water. The pH values of the samples were controlled in regular intervals and readjusted if necessary by addition of HNO3 (1 M, 0.1 M, 0.01 M) or NaOH (1 M, 0.1 M, 0.01 M). Aliquots of 20 μL were taken from the bulk solution for HPLC analysis. The overall scheme may be described as follows:
The aquated species were identified by comparison with the hydrolysis profile produced by the corresponding (labile) nitrate compounds. The rate constants for the first aquation step k1 are given in Table 2 and compared with other platinum complexes containing one or two labile ligands. […] In particular, these rates are 2-3 orders of magnitude lower than that of transplatin itself. The rate of aquation tends toward that of carboplatin which in phosphate buffer at 310 K gave a hydrolysis rate of 7.2×10^−7 s^−1 (but in aqueous solution gives a barely measurable rate constant of <5×10^−9 s^−1, which is modulated by the presence of buffer, nucleophile or acid). ^31,32No evidence for formation of Pt(TV) species during hydrolysis is detected under these conditions.^33

[8] = Aqueous solubility of TPA-acetate complexes (sequential addition of water); assay type: physicochemical; settings: ambient temperature
Procedure: as §2

[9] = RF = (IC50 Resistant)/(IC50 Sensitive)

Row | SMILES | starting material remaining, of total intensity ([1]; after 8 h) | N-AcMet product at −3320 ppm (PtN2S2), of total platinum species ([1]; after 10 h) | new species at −1775 ppm (PtN2O2), of total reaction product ([1]; over 10 h) | Solubility (mg/mL), TPA Substituted Carboxylates [2] | cytotoxicity (growth inhibition) [3] | k1, initial hydrolysis rate constant [4] | reaction with 5′-GMP (by 1H H8 and 195Pt NMR signal intensity) [5] | IC50 (A2780) | A2780 RF (A2780; [9]) | IC50 (CH1) | CH1 RF (CH1; [9]) | IC50 (41M) | 41M RF (41M; [9]) | pKa1 [6] | pKa2 [6] | k1, rate constant for the first aquation step [7] | Solubility [8]
1 | Cc1ccncc1.N.O=C[O-].O=C[O-].[Pt+2] [4e, trans-[Pt(OFm)2(NH3)(4-pic)]] | Approximately 50% | 40% | ≤ 15% | 35 mg/mL | most cytotoxic | 1.07e-05 s⁻¹ | Approximately 50% | – | – | – | – | – | – | – | – | – | –
2 | CC(=O)[O-].CC(=O)[O-].N.[Pt+2].c1ccc2cnccc2c1 [trans-[Pt(OAc)2(NH3)(iquin)], trans-[diacetato(ammine)(isoquinoline)platinum(II)]] | – | – | – | – | – | – | – | 13 µM | (1.69) | 20 µM | (0.37) | 22 µM | (0.26) | 3.78 | 6.92 | (7.4 ± 1.5) × 10^−7 s^−1 | 5.2 mg/mL
